Assay results reported in ChEMBL document CHEMBL1165986, “Xestosaprols from the Indonesian marine sponge Xestospongia sp” (J Nat Prod, 2010).

These compounds were tested against Beta-secretase 1 (Homo sapiens, UniProt P56817) (assay: Inhibition of BACE1 mediated cleavage of amyloid precursor protein by chemiluminescence assay).
Chain of Beta-secretase 1 (P56817 whole entry): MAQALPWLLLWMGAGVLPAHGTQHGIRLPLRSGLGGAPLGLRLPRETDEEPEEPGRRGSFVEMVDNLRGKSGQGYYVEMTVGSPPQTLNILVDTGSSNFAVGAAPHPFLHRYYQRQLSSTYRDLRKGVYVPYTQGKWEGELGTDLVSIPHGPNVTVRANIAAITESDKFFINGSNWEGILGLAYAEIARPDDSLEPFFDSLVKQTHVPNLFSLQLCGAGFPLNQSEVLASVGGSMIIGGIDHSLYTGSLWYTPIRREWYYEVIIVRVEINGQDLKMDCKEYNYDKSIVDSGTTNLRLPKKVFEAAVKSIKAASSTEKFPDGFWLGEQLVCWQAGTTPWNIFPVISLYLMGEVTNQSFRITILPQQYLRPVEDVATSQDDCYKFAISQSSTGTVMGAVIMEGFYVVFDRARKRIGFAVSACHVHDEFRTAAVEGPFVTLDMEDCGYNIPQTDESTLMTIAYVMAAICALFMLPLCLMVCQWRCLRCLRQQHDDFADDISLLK

| Compound | IC50 [µM] | inhibition |
| --- | --- | --- |
| C[C@@]12CC[C@H](O)[C@@H]3COC(=C31)C(=O)c1cc3c(OCCO)cccc3cc12 [XESTOSAPROL F] | 135 | Dose-dependent effect |
| C[C@@]12CC[C@H](O)[C@@H]3COC(=C31)C(=O)c1cc3c(O)cccc3cc12 [XESTOSAPROL G] | 155 | Dose-dependent effect |
| C[C@@]12CC[C@@H](O)[C@@H]3COC(=C31)C(=O)c1cc3c(OCCO)cccc3cc12 [XESTOSAPROL H] | 82 | Dose-dependent effect |
| C[C@@]12CC[C@@H](O)[C@@H]3COC(=C31)C(=O)c1cc3ccccc3cc12 [XESTOSAPROL I] | 163 | Dose-dependent effect |
| COc1cccc2cc3c(cc12)[C@]1(C)CC[C@H](O)[C@@H]2COC(=C21)C3=O [XESTOSAPROL J] | 90 | Dose-dependent effect |
| C[C@@]12CC[C@H](O)[C@@H]3COC(=C31)C(=O)c1cc3cccc(O)c3cc12 [XESTOSAPROL K] | 93 | Dose-dependent effect |
| C[C@@]12CC[C@H](O)[C@@H]3COC(=C31)C(=O)c1cc3ccccc3cc12 [XESTOSAPROL L] | 98 | Dose-dependent effect |
| C[C@@]12CCCc3coc(c31)C(=O)c1cc3ccccc3cc12 [XESTOSAPROL M] | 104 | Dose-dependent effect |
